Laboratory results from the supplement of paper PMC6045584.
± gives the standard deviation of the averaged measurements.

Columns and labels:
[1] = compound: T1, CN(C)C/C=C/C(=O)Nc1cc2c(Nc3ccc(F)c(Cl)c3)ncnc2cc1O[C@H]1CCOC1 [AFATINIB]; assay: area under dose-response curve of surviving fraction (unscaled, Aref=0) (surviving fraction x log10(nM)); higher = more resistant; settings: exposure time: 5 days; dose range 0.5-1000 nM
Outline: (§1)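 Surviving fractions were fitted by 3-parameter logistic regression in the drc R package to give dose-response survival curves. They came from tumour cell lines treated for five days with eight inhibitor concentrations from 0.5 to 1000 nM and read by CellTiter-Glo luminescence against DMSO-only wells. The area under the curve is the unscaled activity area. It was calculated over log10 dose with Aref = 0.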

[2] = compound: T2, CC1(C)CC(=O)c2c(C(F)(F)F)nn(-c3ccc(C(N)=O)c(N[C@H]4CC[C@H](OC(=O)CN)CC4)c3)c2C1 [SNX-5422]; assay: as above; settings: exposure time: 5 days; dose range 0.5-1000 nM
Outline: as §1

[3] = compound: T3, CCCCCCCCCCCCCCCC(=O)Nc1ccn([C@@H]2O[C@H](CO)[C@@H](O)[C@@H]2C#N)c(=O)n1 [SAPACITABINE]; assay: as above; settings: exposure time: 5 days; dose range 0.5-1000 nM
Outline: as §1

[4] = compound: Cn1cc(C2=Nc3cc(NC(=O)C(N)C4CCCCC4)cc4c3C2=CNNC4=O)cn1; assay: as above; settings: exposure time: 5 days; dose range 0.5-1000 nM
Outline: as §1

[5] = compound: T4, Nc1nc2[nH]cnc2c(=S)[nH]1 [TIOGUANINE]; assay: as above; settings: exposure time: 5 days; dose range 0.5-1000 nM
Outline: as §1

[6] = compound: T5, C=CC(=O)Nc1cc2c(Nc3ccc(F)c(Cl)c3)ncnc2cc1OCCCN1CCOCC1 [CANERTINIB]; assay: as above; settings: exposure time: 5 days; dose range 0.5-1000 nM
Outline: as §1

[7] = compound: T6, CC[C@@H]1C(=O)N(C)c2cnc(Nc3ccc(C(=O)NC4CCN(C)CC4)cc3OC)nc2N1C1CCCC1 [BI-2536]; assay: as above; settings: exposure time: 5 days; dose range 0.5-1000 nM
Outline: as §1

[8] = compound: T1, AFATINIB; assay: surviving fraction relative to DMSO-only wells; higher = less growth inhibition; settings: exposure time: 5 days
Outline: (§2)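 Tumour cell lines in log phase were plated in 384-well plates at 250–500 cells per well, then, after 24 hours, exposed continuously for five days to inhibitors at 0.5, 1, 5, 10, 50, 100, 500 and 1000 nM. Viability came from CellTiter-Glo luminescence, and surviving fraction is that signal normalised to the median of DMSO-only wells. Plates were read after 10 minutes at room temperature, and each line, screened three times, was kept only when replicate Pearson r was >0.7 and median Z' was >0.3.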

[9] = compound: T2, SNX-5422; assay: as above; settings: exposure time: 5 days
Outline: as §2

[10] = compound: CNC(=O)c1ccc(N2C(=S)N(c3ccc(C#N)c(C(F)(F)F)c3)C(=O)C2(C)C)cc1F [MDV3100]; assay: as above; settings: exposure time: 5 days
Outline: as §2

[11] = compound: T3, SAPACITABINE; assay: as above; settings: exposure time: 5 days
Outline: as §2

[12] = compound: Cn1cc(C2=Nc3cc(NC(=O)C(N)C4CCCCC4)cc4c3C2=CNNC4=O)cn1; assay: as above; settings: exposure time: 5 days
Outline: as §2

[13] = compound: T4, TIOGUANINE; assay: as above; settings: exposure time: 5 days
Outline: as §2

[14] = compound: T5, CANERTINIB; assay: as above; settings: exposure time: 5 days
Outline: as §2

[15] = compound: T6, BI-2536; assay: as above; settings: exposure time: 5 days
Outline: as §2

## SKBR3 BREAST
[1]
  area under dose-response curve: 0.986
[2]
  area under dose-response curve: 2.08
[3]
  area under dose-response curve: 2.23
[4]
  area under dose-response curve: 2.39
[5]
  area under dose-response curve: 3.36
[6]
  area under dose-response curve: 1.75
[7]
  area under dose-response curve: 0.991
[8]; 0.5 nM
  surviving fraction: 0.866 ± 0.033
[8]; 1 nM
  surviving fraction: 0.699 ± 0.049
[8]; 5 nM
  surviving fraction: 0.322 ± 0.015
[8]; 10 nM
  surviving fraction: 0.265 ± 0.013
[8]; 50 nM
  surviving fraction: 0.167 ± 0.011
[8]; 100 nM
  surviving fraction: 0.131 ± 0.007
[8]; 500 nM
  surviving fraction: 0.119 ± 0.0076
[8]; 1000 nM
  surviving fraction: 0.122 ± 0.006
[9]; 0.5 nM
  surviving fraction: 0.866 ± 0.051
[9]; 1 nM
  surviving fraction: 0.932 ± 0.25
[9]; 5 nM
  surviving fraction: 0.93 ± 0.068
[9]; 10 nM
  surviving fraction: 0.841 ± 0.051
[9]; 50 nM
  surviving fraction: 0.439 ± 0.024
[9]; 100 nM
  surviving fraction: 0.432 ± 0.035
[9]; 500 nM
  surviving fraction: 0.192 ± 0.01
[9]; 1000 nM
  surviving fraction: 0.181 ± 0.002
[10]; 0.5 nM
  surviving fraction: 1.02 ± 0.093
[10]; 1 nM
  surviving fraction: 1.09 ± 0.12
[10]; 5 nM
  surviving fraction: 1.11 ± 0.069
[10]; 10 nM
  surviving fraction: 1.1 ± 0.17
[10]; 50 nM
  surviving fraction: 1 ± 0.11
[10]; 100 nM
  surviving fraction: 1.052 ± 0.0065
[10]; 500 nM
  surviving fraction: 0.971 ± 0.046
[10]; 1000 nM
  surviving fraction: 1.09 ± 0.18
[11]; 0.5 nM
  surviving fraction: 0.873 ± 0.076
[11]; 1 nM
  surviving fraction: 0.696 ± 0.054
[11]; 5 nM
  surviving fraction: 0.756 ± 0.012
[11]; 10 nM
  surviving fraction: 0.828 ± 0.046
[11]; 50 nM
  surviving fraction: 0.791 ± 0.15
[11]; 100 nM
  surviving fraction: 0.572 ± 0.096
[11]; 500 nM
  surviving fraction: 0.386 ± 0.084
[11]; 1000 nM
  surviving fraction: 0.391 ± 0.051
[12]; 0.5 nM
  surviving fraction: 0.927 ± 0.058
[12]; 1 nM
  surviving fraction: 0.948 ± 0.086
[12]; 5 nM
  surviving fraction: 0.989 ± 0.088
[12]; 10 nM
  surviving fraction: 1 ± 0.073
[12]; 50 nM
  surviving fraction: 0.736 ± 0.056
[12]; 100 nM
  surviving fraction: 0.459 ± 0.064
[12]; 500 nM
  surviving fraction: 0.206 ± 0.011
[12]; 1000 nM
  surviving fraction: 0.224 ± 0.024
[13]; 0.5 nM
  surviving fraction: 1.03 ± 0.087
[13]; 1 nM
  surviving fraction: 0.956 ± 0.13
[13]; 5 nM
  surviving fraction: 0.946 ± 0.13
[13]; 10 nM
  surviving fraction: 1.04 ± 0.17
[13]; 50 nM
  surviving fraction: 1.11 ± 0.11
[13]; 100 nM
  surviving fraction: 0.939 ± 0.03
[13]; 500 nM
  surviving fraction: 1.08 ± 0.17
[13]; 1000 nM
  surviving fraction: 1.05 ± 0.045
[14]; 0.5 nM
  surviving fraction: 0.831 ± 0.019
[14]; 1 nM
  surviving fraction: 0.79 ± 0.017
[14]; 5 nM
  surviving fraction: 0.68 ± 0.051
[14]; 10 nM
  surviving fraction: 0.6073 ± 0.0035
[14]; 50 nM
  surviving fraction: 0.48 ± 0.025
[14]; 100 nM
  surviving fraction: 0.4 ± 0.024
[14]; 500 nM
  surviving fraction: 0.224 ± 0.0067
[14]; 1000 nM
  surviving fraction: 0.176 ± 0.0098
[15]; 0.5 nM
  surviving fraction: 0.914 ± 0.12
[15]; 1 nM
  surviving fraction: 0.363 ± 0.043
[15]; 5 nM
  surviving fraction: 0.158 ± 0.026
[15]; 10 nM
  surviving fraction: 0.189 ± 0.02
[15]; 50 nM
  surviving fraction: 0.255 ± 0.063
[15]; 100 nM
  surviving fraction: 0.356 ± 0.045
[15]; 500 nM
  surviving fraction: 0.321 ± 0.018
[15]; 1000 nM
  surviving fraction: 0.301 ± 0.025
